Measurements reported in ChEMBL document CHEMBL1153245, “A profile of the in vitro anti-tumor activity of imidazolium-based ionic liquids” (2010).

Key:
Format in all cases: functional
NCI-H23 = test: Anticancer activity against human NCI-H23 cells assessed cell growth at 10 uM after 48 hrs by sulforhodamine B assay relative to control
HCC 2998 = test: Anticancer activity against human HCC2998 cells assessed cell growth at 10 uM after 48 hrs by sulforhodamine B assay relative to control
DU-145 = test: Anticancer activity against human DU145 cells assessed cell growth at 10 uM after 48 hrs by sulforhodamine B assay relative to control
OVCAR-3 = test: Anticancer activity against human OVCAR-3 cells assessed cell growth at 10 uM after 48 hrs by sulforhodamine B assay relative to control
HCT-15 = test: Anticancer activity against human HCT15 cells assessed cell growth at 10 uM after 48 hrs by sulforhodamine B assay relative to control
A498 = test: Anticancer activity against human A498 cells assessed cell growth at 10 uM after 48 hrs by sulforhodamine B assay relative to control
NCI-H226 = test: Anticancer activity against human NCI-H226 cells assessed cell growth at 10 uM after 48 hrs by sulforhodamine B assay relative to control
M14 = test: Anticancer activity against human M14 cells assessed cell growth at 10 uM after 48 hrs by sulforhodamine B assay relative to control
SNB-75 = test: Anticancer activity against human SNB75 cells assessed cell growth at 10 uM after 48 hrs by sulforhodamine B assay relative to control
SR = test: Anticancer activity against human SR cells assessed cell growth at 10 uM after 48 hrs by sulforhodamine B assay relative to control
SK-OV-3 = test: Anticancer activity against human SKOV3 cells assessed cell growth at 10 uM after 48 hrs by sulforhodamine B assay relative to control
KM12 = test: Anticancer activity against human KM12 cells assessed cell growth at 10 uM after 48 hrs by sulforhodamine B assay relative to control
T47D = test: Anticancer activity against human T47D cells assessed cell growth at 10 uM after 48 hrs by sulforhodamine B assay relative to control
MDA-MB-231 = test: Anticancer activity against human MDA-MB-231 cells assessed cell growth at 10 uM after 48 hrs by sulforhodamine B assay relative to control
[1] = Anticancer activity against human RPMI8266 cells assessed cell growth at 10 uM after 48 hrs by sulforhodamine B assay relative to control
UACC-257 = test: Anticancer activity against human UACC257 cells assessed cell growth at 10 uM after 48 hrs by sulforhodamine B assay relative to control
HCT-116 = test: Anticancer activity against human HCT116 cells assessed cell growth at 10 uM after 48 hrs by sulforhodamine B assay relative to control
SN12C = test: Anticancer activity against human SN12C cells assessed cell growth at 10 uM after 48 hrs by sulforhodamine B assay relative to control
SK-MEL-2 = test: Anticancer activity against human SK-MEL-2 cells assessed cell growth at 10 uM after 48 hrs by sulforhodamine B assay relative to control
K562 = test: Anticancer activity against human K562 cells assessed cell growth at 10 uM after 48 hrs by sulforhodamine B assay relative to control
SF-295 = test: Anticancer activity against human SF295 cells assessed cell growth at 10 uM after 48 hrs by sulforhodamine B assay relative to control
BT-549 = test: Anticancer activity against human BT549 cells assessed cell growth at 10 uM after 48 hrs by sulforhodamine B assay relative to control
SK-MEL-5 = test: Anticancer activity against human SK-MEL-5 cells assessed cell growth at 10 uM after 48 hrs by sulforhodamine B assay relative to control
SF-268 = test: Anticancer activity against human SF268 cells assessed cell growth at 10 uM after 48 hrs by sulforhodamine B assay relative to control
NCI-H522 = test: Anticancer activity against human NCI-H522 cells assessed cell growth at 10 uM after 48 hrs by sulforhodamine B assay relative to control
U-251 = test: Anticancer activity against human U251 cells assessed cell growth at 10 uM after 48 hrs by sulforhodamine B assay relative to control
OVCAR-4 = test: Anticancer activity against human OVCAR4 cells assessed cell growth at 10 uM after 48 hrs by sulforhodamine B assay relative to control
CCRF-CEM = test: Anticancer activity against human CCRF-CEM cells assessed cell growth at 10 uM after 48 hrs by sulforhodamine B assay relative to control
NCI/ADR-RES = test: Anticancer activity against human NCI/ADR-RES cells assessed cell growth at 10 uM after 48 hrs by sulforhodamine B assay relative to control
Malme-3M = test: Anticancer activity against human MALME-3M cells assessed cell growth at 10 uM after 48 hrs by sulforhodamine B assay relative to control
OVCAR-5 = test: Anticancer activity against human OVCAR5 cells assessed cell growth at 10 uM after 48 hrs by sulforhodamine B assay relative to control
HL-60(TB) = test: Anticancer activity against human HL-60(TB) cells assessed cell growth at 10 uM after 48 hrs by sulforhodamine B assay relative to control
SW-620 = test: Anticancer activity against human SW620 cells assessed cell growth at 10 uM after 48 hrs by sulforhodamine B assay relative to control
SF-539 = test: Anticancer activity against human SF539 cells assessed cell growth at 10 uM after 48 hrs by sulforhodamine B assay relative to control
HT-29 = test: Anticancer activity against human HT-29 cells assessed cell growth at 10 uM after 48 hrs by sulforhodamine B assay relative to control
UACC-62 = test: Anticancer activity against human UACC62 cells assessed cell growth at 10 uM after 48 hrs by sulforhodamine B assay relative to control
COLO 205 = test: Anticancer activity against human COLO205 cells assessed cell growth at 10 uM after 48 hrs by sulforhodamine B assay relative to control
CAKI-1 = test: Anticancer activity against human Caki1 cells assessed cell growth at 10 uM after 48 hrs by sulforhodamine B assay relative to control
ACHN = test: Anticancer activity against human ACHN cells assessed cell growth at 10 uM after 48 hrs by sulforhodamine B assay relative to control
MDA-MB-435 = test: Anticancer activity against human MDA-MB-435 cells assessed cell growth at 10 uM after 48 hrs by sulforhodamine B assay relative to control
MOLT-4 = test: Anticancer activity against human MOLT4 cells assessed cell growth at 10 uM after 48 hrs by sulforhodamine B assay relative to control
SK-MEL-28 = test: Anticancer activity against human SK-MEL-28 cells assessed cell growth at 10 uM after 48 hrs by sulforhodamine B assay relative to control
HOP-92 = test: Anticancer activity against human HOP92 cells assessed cell growth at 10 uM after 48 hrs by sulforhodamine B assay relative to control

CCCCCCCC[n+]1ccn(C)c1.[Cl-]
Activity (NCI-H23): 62.26% | Activity (HCC 2998): 77.19% | Activity (DU-145): 99.82% | Activity (OVCAR-3): 81.96% | Activity (HCT-15): 111.4% | Activity (A498): 101.4% | Activity (NCI-H226): 75.79% | Activity (M14): 87.47% | Activity (SNB-75): 83.9% | Activity (SR): 88.57% | Activity (SK-OV-3): 98.42% | Activity (KM12): 81.14% | Activity (T47D): 87.08% | Activity (MDA-MB-231): 74.81% | Activity [1]: 122.18% | Activity (UACC-257): 83.24% | Activity (HCT-116): 62.3% | Activity (SN12C): 93.85% | Activity (SK-MEL-2): 85.11% | Activity (K562): 63.96% | Activity (SF-295): 101.39% | Activity (BT-549): 81.23% | Activity (SK-MEL-5): 86.81% | Activity (SF-268): 95.77% | Activity (NCI-H522): 72.78% | Activity (U-251): 79.77% | Activity (OVCAR-4): 61.98% | Activity (CCRF-CEM): 121.49% | Activity (NCI/ADR-RES): 95.09% | Activity (Malme-3M): 80.97% | Activity (OVCAR-5): 101.85% | Activity (HL-60(TB)): 94.06% | Activity (SW-620): 89.37% | Activity (SF-539): 71.01% | Activity (HT-29): 69.97% | Activity (UACC-62): 81.12% | Activity (COLO 205): 97.68% | Activity (CAKI-1): 66.65% | Activity (ACHN): 75.93% | Activity (MDA-MB-435): 70.46% | Activity (MOLT-4): 81.09% | Activity (SK-MEL-28): 120.13% | Activity (HOP-92): 106.43%

CCCCCCCCOS(=O)(=O)[O-].CCCCCCCC[n+]1ccn(C)c1
Activity (NCI-H23): 56.59% | Activity (HCC 2998): 69.81% | Activity (DU-145): 96.94% | Activity (OVCAR-3): 81.64% | Activity (HCT-15): 107.62% | Activity (A498): 90.58% | Activity (NCI-H226): 74.07% | Activity (M14): 84% | Activity (SNB-75): 84.66% | Activity (SR): 82.08% | Activity (SK-OV-3): 82.36% | Activity (KM12): 76.23% | Activity (T47D): 80.27% | Activity (MDA-MB-231): 66.28% | Activity [1]: 116.11% | Activity (UACC-257): 78.7% | Activity (HCT-116): 55.91% | Activity (SN12C): 92.64% | Activity (SK-MEL-2): 83.39% | Activity (K562): 93.71% | Activity (SF-295): 80.68% | Activity (BT-549): 67.86% | Activity (SK-MEL-5): 74.87% | Activity (SF-268): 92.2% | Activity (NCI-H522): 57.44% | Activity (U-251): 71.96% | Activity (OVCAR-4): 60.6% | Activity (CCRF-CEM): 97.94% | Activity (NCI/ADR-RES): 94.1% | Activity (Malme-3M): 80.15% | Activity (OVCAR-5): 98.17% | Activity (HL-60(TB)): 82.07% | Activity (SW-620): 86.25% | Activity (SF-539): 65.31% | Activity (HT-29): 67.62% | Activity (UACC-62): 85.18% | Activity (COLO 205): 82.4% | Activity (CAKI-1): 56.81% | Activity (ACHN): 67.5% | Activity (MDA-MB-435): 55.5% | Activity (MOLT-4): 86.99% | Activity (SK-MEL-28): 112.15% | Activity (HOP-92): 107.58%
